In US20180028477A1, “TREATMENT OF CARDIAC REMODELING AND OTHER HEART CONDITIONS” (C & C BIOPHARMA, LLC, priority 2013, published 2018):

Tested on: pressure overload produced by transverse aortic coarctation (TAC) in C57/B16 mice
Assay type: in vivo
Experimental: […]. Mice were treated with daily injections of MEF2 inhibitor 8MI at the indicated concentrations for two weeks beginning immediately after transverse aortic banding. N=at least 3 per condition. Mice were subjected to either a sham operation (dark gray bars) or TAC (light gray bars). […] Ejection fraction, a measure of contractile function, was determined by echocardiography on a Vevo 770 ultrasound system prior to sacrifice at two weeks.
[…]. TAC has been used extensively to model the clinical hypertrophic stimuli of hypertension, aortic valve disease, and other types of pressure overload. In vivo pressure overload was created in wild type C57/B16 by creation of a surgical restriction in the transverse aorta between the origins of the right and left carotid arteries as previously described in Wei et. al. 2008. Control littermates were subjected to a sham operation. […] Trans-aortic gradients were determined by simultaneous measurements from the right and left carotid arteries using Statham pressure transducers (model P23XL, Viggo-Spectramed, Oxnard, Calif.) zeroed at the level of the right atrium. Pressures were continuously recorded as described in Wei et. al. 2008. […]
C57/B16 mice were treated with 8MI for two weeks and evaluated for cardiac function by echocardiography and for cardiac mass using a standard index of heart weight to tibia length (HW/TL) after sacrifice. […]

In the case of `Nc1ccccc1NC(=O)CCCCCC(=O)Nc1cccc(Br)c1` [8MI], the mortality (mouse, in vivo) is reported as “no mortality” and the “TAC-induced reduction of Left Ventricular Ejection Fraction (LVEF)” value (two weeks after TAC, 5, 20 and 40 μg/g 8MI daily) is reported as “largely prevented this impairment of function”.
